Among the data in PMC7270175, “Micelle-stabilized Olfactory Receptors for a Bioelectronic Nose Detecting Butter Flavors in Real Fermented Alcoholic Beverages” (Scientific Reports, 2020) are Kd values, retold here.

In the experiment the target is T1, ODR-10 (Caenorhabditis elegans, UniProt Q18807).
T1 construct: ODR-10 in pET-DEST42 (V5 and Ni-column purification tag), E. coli BL21(DE3), SDS-solubilized, reconstituted in DDM/Cymal 6 detergent micelles; also pcDNA3 ODR-10 in HEK-293 cells
T1 sequence (Q18807 1-339): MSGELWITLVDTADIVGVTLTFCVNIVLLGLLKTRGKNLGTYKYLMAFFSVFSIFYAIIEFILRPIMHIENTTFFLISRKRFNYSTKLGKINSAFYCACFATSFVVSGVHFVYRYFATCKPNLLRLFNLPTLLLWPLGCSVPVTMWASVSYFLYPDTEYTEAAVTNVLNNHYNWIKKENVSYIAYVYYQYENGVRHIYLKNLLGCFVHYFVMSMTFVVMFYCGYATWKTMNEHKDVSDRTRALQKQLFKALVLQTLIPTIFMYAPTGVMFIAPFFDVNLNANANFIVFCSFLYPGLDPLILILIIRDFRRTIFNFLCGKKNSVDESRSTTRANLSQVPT
Put plainly: carbon nanotube FET, Hill fit of conductance response. The conditions noted are these: read-out: K. The experiment is classed as binding.

Regarding `CC(=O)C(C)=O` [Diacetyl, 2,3-butanedione], the Kd was about 1.7 pM.
